Assay in all cases: relative viability (nuclei count vs DMSO), 5 days (fraction); higher = more cells survive
Compound in assay [1]: CN1C=C(C2=CC=CC=C21)/C=C\3/C4=C(C=CC=N4)NC3=O + NC(=O)Nc1cc(-c2cccc(F)c2)sc1C(=O)N[C@H]1CCCNC1 [AZD7762] (partner 0.2 µM)
The gist of the method:
(§1)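 Lung cancer cell lines, seeded in 1536-well plates, were treated the following day by pin tool with a single drug or with five library-drug doses (not always all listed) in √10 steps on top of a fixed anchor-drug dose. Cells were fixed and nuclei stained in one step after 5 days, and nuclei were counted. Relative viability is the nuclei count for treated wells divided by that for vehicle wells, reported as medians of duplicate plates.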

Compound in assay [2]: CN1C=C(C2=CC=CC=C21)/C=C\3/C4=C(C=CC=N4)NC3=O + COc1cc2c(Oc3ccc(NC(=O)C4(C(=O)Nc5ccc(F)cc5)CC4)cc3F)ccnc2cc1OCCCN1CCOCC1 [Foretinib] (partner 0.25 µM)
The gist of the method:
as §1

Compound in the assay “Trametinib + Tozasertib”: CC(=O)Nc1cccc(-n2c(=O)n(C3CC3)c(=O)c3c(Nc4ccc(I)cc4F)n(C)c(=O)c(C)c32)c1 [Trametinib] + Cc1cc(Nc2cc(N3CCN(C)CC3)nc(Sc3ccc(NC(=O)C4CC4)cc3)n2)n[nH]1 [Tozasertib] (partner 0.1 µM)
In short, it runs like this: as §1

Compound in assay [3]: CN1C=C(C2=CC=CC=C21)/C=C\3/C4=C(C=CC=N4)NC3=O + COc1cccc2cc(-c3nc([C@H]4CC[C@H](C(=O)O)CC4)n4ncnc(N)c34)[nH]c12 [OSI-027] (partner 0.5 µM)
In short, it runs like this: as §1

For the cell line NCI-H1395, the relative viability was 0.385 in assay [1] (first compound 0.02 µM); 0.374 in assay [1] (first compound 0.06325 µM); 0.364 in assay [1] (first compound 0.2 µM); 0.407 in assay [1] (first compound 0.6325 µM); 0.403 in assay [1] (first compound 2 µM); 0.889 in assay [2] (first compound 0.02 µM). Moreover, the relative viability came to 0.942 in assay [2] (first compound 0.06325 µM); 0.864 in assay [2] (first compound 0.2 µM); 0.992 in assay [2] (first compound 0.6325 µM); 0.868 in assay [2] (first compound 2 µM); 0.797 with Trametinib + Tozasertib (first compound 0.0025 µM); 0.73 with Trametinib + Tozasertib (first compound 0.007906 µM). The relative viability with Trametinib + Tozasertib (first compound 0.025 µM) worked out at 0.721; with Trametinib + Tozasertib (first compound 0.07906 µM), 0.718; with Trametinib + Tozasertib (first compound 0.25 µM), 0.548; in assay [3] (first compound 0.02 µM), 0.604; in assay [3] (first compound 0.06325 µM) it was 0.613; in assay [3] (first compound 0.2 µM), 0.445. Moreover, the relative viability came out at 0.669 in assay [3] (first compound 0.6325 µM) and 0.601 in assay [3] (first compound 2 µM).

EMC-BAC-2: the relative viability in assay [1] (first compound 0.02 µM) turned out to be 0.963; in assay [1] (first compound 0.06325 µM) it was 0.963; in assay [1] (first compound 0.2 µM) it was 0.91; in assay [1] (first compound 0.6325 µM) it was 1.03; in assay [1] (first compound 2 µM) it was 1; in assay [2] (first compound 0.02 µM), 1.04. The relative viability in assay [2] (first compound 0.06325 µM) was 0.996; in assay [2] (first compound 0.2 µM), 1.01; in assay [2] (first compound 0.6325 µM) it was 1.06; in assay [2] (first compound 2 µM), 1.08; with Trametinib + Tozasertib (first compound 0.0025 µM), 0.369; with Trametinib + Tozasertib (first compound 0.007906 µM), 0.354. Also, the relative viability in the assay with Trametinib + Tozasertib (first compound 0.025 µM) was determined as 0.41; in the assay with Trametinib + Tozasertib (first compound 0.07906 µM) it was 0.457; with Trametinib + Tozasertib (first compound 0.25 µM) it was 0.328; in assay [3] (first compound 0.02 µM) it was 0.388; in assay [3] (first compound 0.06325 µM) it was 0.384; in assay [3] (first compound 0.2 µM), 0.391. Besides, the relative viability is 0.405 in assay [3] (first compound 0.6325 µM) and 0.362 in assay [3] (first compound 2 µM).

Regarding NCI-H1355, the relative viability in assay [1] (first compound 0.02 µM) turned out to be 0.715; in assay [1] (first compound 0.06325 µM), 0.708; in assay [1] (first compound 0.2 µM) it was 0.637; in assay [1] (first compound 0.6325 µM), 0.606; in assay [1] (first compound 2 µM) it was 0.642; in assay [2] (first compound 0.02 µM), 0.957. The relative viability in assay [2] (first compound 0.06325 µM) is 0.893; in assay [2] (first compound 0.2 µM), 0.958; in assay [2] (first compound 0.6325 µM), 0.772; in assay [2] (first compound 2 µM) it was 0.766; with Trametinib + Tozasertib (first compound 0.0025 µM) it was 0.588; with Trametinib + Tozasertib (first compound 0.007906 µM), 0.463. The relative viability came out at 0.418 with Trametinib + Tozasertib (first compound 0.025 µM); 0.394 with Trametinib + Tozasertib (first compound 0.07906 µM); 0.318 with Trametinib + Tozasertib (first compound 0.25 µM); 0.371 in assay [3] (first compound 0.02 µM); 0.348 in assay [3] (first compound 0.06325 µM); 0.3 in assay [3] (first compound 0.2 µM). Besides, the relative viability in assay [3] (first compound 0.6325 µM) was found to be 0.345; in assay [3] (first compound 2 µM), 0.362.

For the cell line NCI-H1944, the relative viability turned out to be 0.442 in assay [1] (first compound 0.02 µM); 0.471 in assay [1] (first compound 0.06325 µM); 0.464 in assay [1] (first compound 0.6325 µM); 0.469 in assay [1] (first compound 2 µM); 0.89 in assay [2] (first compound 0.02 µM); 0.874 in assay [2] (first compound 0.06325 µM). Further, the relative viability in assay [2] (first compound 0.6325 µM) is 0.826; in assay [2] (first compound 2 µM), 0.77; with Trametinib + Tozasertib (first compound 0.0025 µM), 0.262; with Trametinib + Tozasertib (first compound 0.007906 µM), 0.21; with Trametinib + Tozasertib (first compound 0.025 µM) it was 0.185; with Trametinib + Tozasertib (first compound 0.07906 µM), 0.185. Besides, the relative viability turned out to be 0.177 in the assay with Trametinib + Tozasertib (first compound 0.25 µM); 0.433 in assay [3] (first compound 0.02 µM); 0.368 in assay [3] (first compound 0.06325 µM); 0.423 in assay [3] (first compound 0.6325 µM); 0.351 in assay [3] (first compound 2 µM).

Turning to ABC-1, the relative viability in assay [1] (first compound 0.02 µM) was 0.889; in assay [1] (first compound 0.6325 µM), 0.708; in assay [1] (first compound 2 µM) it was 0.874; in assay [2] (first compound 0.02 µM), 0.929; in assay [2] (first compound 0.06325 µM), 1.08; in assay [2] (first compound 0.2 µM) it was 1.16. Moreover, the relative viability in assay [2] (first compound 0.6325 µM) is 1.13; in assay [2] (first compound 2 µM), 1.13; with Trametinib + Tozasertib (first compound 0.0025 µM) it was 0.169; in the assay with Trametinib + Tozasertib (first compound 0.007906 µM), 0.153; with Trametinib + Tozasertib (first compound 0.025 µM) it was 0.154; with Trametinib + Tozasertib (first compound 0.07906 µM), 0.148. In addition, the relative viability with Trametinib + Tozasertib (first compound 0.25 µM) was determined as 0.158; in assay [3] (first compound 0.02 µM), 0.683; in assay [3] (first compound 0.06325 µM) it was 0.461; in assay [3] (first compound 0.2 µM), 0.273; in assay [3] (first compound 0.6325 µM), 0.4; in assay [3] (first compound 2 µM) it was 0.533.

With HOP-62, the relative viability in assay [1] (first compound 0.02 µM) was determined as 0.569; in assay [1] (first compound 0.06325 µM), 0.559; in assay [1] (first compound 0.6325 µM) it was 0.919; in assay [1] (first compound 2 µM) it was 0.774; in assay [2] (first compound 0.02 µM) it was 1.11; in assay [2] (first compound 0.06325 µM) it was 1.17. The relative viability amounted to 1.22 in assay [2] (first compound 0.2 µM); 1.13 in assay [2] (first compound 0.6325 µM); 1.12 in assay [2] (first compound 2 µM); 0.419 in the assay with Trametinib + Tozasertib (first compound 0.0025 µM); 0.367 with Trametinib + Tozasertib (first compound 0.007906 µM); 0.374 in the assay with Trametinib + Tozasertib (first compound 0.025 µM). Further, the relative viability was 0.232 with Trametinib + Tozasertib (first compound 0.07906 µM); 0.203 with Trametinib + Tozasertib (first compound 0.25 µM); 0.712 in assay [3] (first compound 0.02 µM); 0.873 in assay [3] (first compound 0.06325 µM); 0.645 in assay [3] (first compound 0.2 µM); 0.875 in assay [3] (first compound 0.6325 µM). Also, the relative viability in assay [3] (first compound 2 µM) worked out at 0.846.
